How the values were obtained:
[1] = tested on: all microorganisms tested; assay: Bactericidal effect of 200 ppm gNO, whole panel of microbes (average / all tested); format: cell-based; settings: saline, average over the bacteria of Table 1
Description: A similar procedure was used to determine the time required to induce an effective bactericidal effect with 200 parts per million gNO, a concentration just above the dose used in the dose-ranging study presented hereinabove, on a representative collection of drug resistant gram-positive and gram-negative strains of bacteria associated with clinical infection.
A successful bactericidal effect was defined as a decrease in bacteria greater than 3 log10 CFU/mL. Further, C. albicans, Methicillin Resistant S. aureus (MRSA), a particularly resistant strain of P. aeruginosa from a cystic fibrosis patient, Group B Streptococcus, and M. smegmatis were also included to evaluate if yeasts, a multi-drug resistant strain of bacteria and actinomycetes have a similar response. These bacteria represent a comprehensive variety of drug resistant bacterial pathogens that contribute to both respiratory and wound infections. The results from these studies laid the foundation for use of gNO at a concentration higher than 160 ppm as an antibacterial agent, specifically for use against bacteria associated with clinical infections.
For this study, saline was selected as a suspension media because it would not mask the direct effect of gNO as a bactericidal, whereas fully supplemented growth medium might introduce external variables (e.g., buffer or react with gNO). Other media might also provide metabolites and replenish nutrients that produce enzymes that protect bacteria from oxidative and nitrosative damage, thereby masking the effect of gNO. […] In saline, the colonies were static but remained viable. These conditions are similar to the approach previously used in animal models.
Without exception, every bacteria challenged with 200 ppm gNO had at least a 3 log10 reduction in CFU/mL. […] The latent period was then followed by an abrupt death of all cells; gram negative and gram positive bacteria, antibiotic resistant bacterial strains, yeast and mycobacteria all were susceptible to 200 ppm gNO. […]

P. aeruginosa (ATCC) = settings: 200 ppm gNO, saline; cited from earlier work
S. maltophilia = settings: 200 ppm gNO, saline; cited from earlier work
[2] = tested on: influenza A/victoria/H3N2; settings: 160 ppm gNO, cited from earlier work
[3] = tested on: five planktonic species of methicillin resistant S. aureous (MRSA); settings: 1,600 ppm hours of gNO; cited from earlier work
P. aeruginosa = settings: cited from earlier work
[4] = tested on: all microorganisms tested; settings: 200 ppm gNO, cited from earlier work
Klebsiella sp.#1 = settings: 200 ppm gNO, saline; cited from earlier work
Group B Streptococci = settings: 200 ppm gNO, saline; cited from earlier work
[5] = continuous delivery of 80 ppm gNO; cited from earlier work
[6] = tested on: highly pathogenic Avian Influenza H7N3; settings: cited from earlier work
Serracia sp. = settings: 200 ppm gNO, saline; cited from earlier work
[7] = Phase I open label safety study of intermittent 160 ppm gNO inhalation: adverse events, vital signs, oxygenation; format: in vivo, human
Description: 10 healthy adult volunteer subjects (5 males, 5 females), aged 20 to 62 years, were enrolled in the study after screening their medical history, a physical examination, pulmonary function tests and blood values. Exclusion criteria included individuals less than 19 years of age, pregnant females and unwilling to practice birth control during the study, diagnosed with pulmonary disease, epistaxis, hemoptysis, methemoglobinemia, organ transplant recipient or receiving antibiotic therapy.
After obtaining informed consent, treatment was initiated within 5 days of enrollment. Subjects were housed in a hospital ward and received 160 ppm gNO for 30 minutes every four hours (Q4h), five times a day, for five consecutive days by inhalation. Subjects returned for follow-up evaluations 3, 7 and 21 days after the final gNO administration. Subject safety was determined by monitoring vital signs, methemoglobin levels, lung function, blood chemistry, hematology, prothrombin time, inflammatory cytokine/chemokines levels and endothelial activation. These parameters were compared to baseline and at various time-points during and after gNO administration.
Subjects were administered gNO through a modified disposable mouthpiece to maximize mixing. Inspiration was spontaneously initiated by the subject from a conventional intermittent positive pressure breathing respirator (Mark-7, Carefusion, USA) in fixed flow mode delivering 48 liters per minute (LPM). Flows of gas were verified with a calibrated mass flow meter (TSI, USA). Gaseous nitric oxide (gNO, obtained at INOmax, Ikaria, USA) at a concentration of 800 ppm delivered at a flow of 12 LPM was titrated into a distal delivery port on the mouth piece connected to the respirator during inspiratory phase only (pressure switch). The Mark 7 respirator was supplied by an air/oxygen blender (Bird Sentry, Carefusion, USA) set to deliver 26% oxygen.
General medical examinations were performed by a pulmonary physician on screening and on days 8, 12 and 26 to obtain oxygenation and vital sign measurements. Abbreviated physical examination by a registered nurse was carried out each day prior to initiation of treatments on days 1-5. Oxygenation was measured with a pulse oximeter (Rad 57, Masimo Corporation, USA) which was used according to manufacturer's guidelines to measure functional oxygen saturation of arterial hemoglobin (SpO2) and heart rate. These parameters were measured continuously during every gNO administration and for 3.5 hours after the first treatment of the day. Cardiovascular status was determined by monitoring heart rate, blood pressure, respiratory rate and temperature. Values were recorded prior to the start of each gNO administration, following a 5 minute rest. During treatments, vital signs (except temperature) were also performed 15 minutes after the start of the treatment and at the end of gNO administration and recorded. After the first treatment each day, vital signs were recorded at every 30 minutes until the start of the second gNO administration of the day.

[8] = 160 ppm gNO 30 min, 5 times a day, 5 days, 10 healthy adults
[9] = during or after gNO administration, 160 ppm

SMILES: [N]=O [gNO, nitric oxide]
- LD100, Average [1]: 4.77 h
- Latent Period, Average [1]: 2.77 h
- −2.5 Log10, Average [1]: 3.82 hours
- LD100 (P. aeruginosa (ATCC)): 3 h
- Latent Period (P. aeruginosa (ATCC)): 1 h
- −2.5 Log10 (P. aeruginosa (ATCC)): 2.1 hours
- LD100 (S. maltophilia): 4 h
- Latent Period (S. maltophilia): 2 h
- −2.5 Log10 (S. maltophilia): 2.8 hours
- infectivity ([2]; MDCK plaque assay, A/Victoria/H3N2): reducing the infectivity
- anti-viral effect, intermittent versus single exposure ([2]; one 30 minute dose vs three 30 minute treatments Q4h): more evident in the intermittent form of exposure
- population of planktonic MRSA strains [3]: A reduction in the population of all five MRSA planktonic strains was observed
- survival (downward bactericidal trend towards) (P. aeruginosa; 50-160 ppm gNO, solid media, vs medical air): 5-10%
- reduction of colony formation (P. aeruginosa; gNO greater than 120 ppm, agar plates): greater than 90%
- time required to achieve the >90% reduction of colony formation (P. aeruginosa; gNO greater than 120 ppm): 8 to 12 h
- bactericidal effect [4]: complete bactericidal effect on all microorganisms tested
- reduction in CFU/mL ([4]; every bacteria challenged): ≥ 3 log10
- LD100 (Klebsiella sp.#1): 6 h
- Latent Period (Klebsiella sp.#1): 3 h
- −2.5 Log10 (Klebsiella sp.#1): 3.5 hours
- LD100 (Group B Streptococci): 2 h
- Latent Period (Group B Streptococci): 1 h
- −2.5 Log10 (Group B Streptococci): 1.5 hours
- NO2 level [5]: 2.6 ppm
- increase of SpMet levels [5]: at least 5%
- subjects exceeding 7% SpMet [5]: 35%
- infectivity [6]: reducing the infectivity
- LD100 (Serracia sp.): 6 h
- Latent Period (Serracia sp.): 4 h
- −2.5 Log10 (Serracia sp.): 4.9 hours
- minor adverse events reported [7, 8]: Three minor adverse events were reported
- significant adverse events [7, 8]: no significant adverse events were observed
- tolerability of treatments ([7]; 160 ppm gNO 30 min, 5 times a day, 5 days, 10 healthy adults, 250 administrations): All treatments were well tolerated
- lowest observed SpO2 ([7]; 160 ppm gNO intermittent inhalation): 93%
- SpO2 levels over time, pretreatment vs post treatment ([7]; 160 ppm gNO, not significant statistically nor clinically): decreased slightly
- vital signs ([7]; during and after gNO administration, 160 ppm): all vital signs remained within normal limits
- blood pressure [7, 9]: no drop in blood pressure
- incidences of hypoxemia (less than 85% SpO2) [7, 9]: No sudden incidences of hypoxemia

Source: patent publication US20150034084A1, “[…] NITRIC OXIDE FOR TREATING RESPIRATORY DISEASES” (Advanced Inhalation Therapies (AIT) Ltd., priority 2012, published 2015)
